Data from patent publication US10617736B2, “Method for modulating insulin-independent glucose transport using teneurin C-terminal associated peptide (TCAP)” (priority 2014, dated 2020).
Ends that are not written are not given here.

Columns and labels:
[1] = test system: skeletal mouse muscle fibers; test: FITC-TCAP-1 binding assay on skeletal mouse muscle sections; details: fluorescence, co-staining with β-DG
Protocol: (§1) The [K8]-TCAP-1 peptide was labeled with fluorescein isothiocyanate (FITC) according to the EZ-label TITC Protein labeling kit (Pierce Biotechnology, Rockford Ill.). FITC was dissolved in dimethylformamide, mixed with the [K8]-TCAP-1 at a 24:1 excess molar ratio and incubated for 2 h at RT in the dark to allow for the conjugation of the primary amine of the lysine group. A dextran column was used to remove the unconjugated FITC and the absorbance of each fraction was measured at 280 nm to determine the elution point of the conjugated peptide in phosphate buffered saline (PBS; 0.1M phosphate, 0.15 M NaCl, pH7.2). The four fractions with the highest protein absorbance readings were combined and sterilize-filtered using an Acrodisc Syringe 0.2 μm Supor low protein binding filter (Pall Life Sciences, Ann Arbor, Mich.). […] The amount of the FITC required to be injected as a control was determined by applying different PBS-diluted preparations of FITC on a nitrocelluose membrate. The level of fluorescence was directly compared to that of a spot of the FITC-[K8]-TCAP-1 conjugate to be administered and that dilution was used for the administration after sterilize-filtration indicated above. Fluorescence was measured using an EP Chemi II Darkroom system (UVP, Upland, Calif.) with the sequential integration function of LabWorks Image acquisition and analysis software. […]

latrophilin-1 = target: T1, latrophilin-1 (Mus musculus, UniProt Q80TR1); test: Co-localization of FITC-TCAP-1 with latrophilin-1 in Hypo E-38 cells; format: binding
T1 construct: only latrophilin 1 and 3 could be detected in this cell line or in the intact mouse brain; endogenous in cells; host or cells: Hypo E-38 (mHypoE-38) immortalized embryonic mouse hypothalamic neurons
T1 sequence (Q80TR1 29-1466): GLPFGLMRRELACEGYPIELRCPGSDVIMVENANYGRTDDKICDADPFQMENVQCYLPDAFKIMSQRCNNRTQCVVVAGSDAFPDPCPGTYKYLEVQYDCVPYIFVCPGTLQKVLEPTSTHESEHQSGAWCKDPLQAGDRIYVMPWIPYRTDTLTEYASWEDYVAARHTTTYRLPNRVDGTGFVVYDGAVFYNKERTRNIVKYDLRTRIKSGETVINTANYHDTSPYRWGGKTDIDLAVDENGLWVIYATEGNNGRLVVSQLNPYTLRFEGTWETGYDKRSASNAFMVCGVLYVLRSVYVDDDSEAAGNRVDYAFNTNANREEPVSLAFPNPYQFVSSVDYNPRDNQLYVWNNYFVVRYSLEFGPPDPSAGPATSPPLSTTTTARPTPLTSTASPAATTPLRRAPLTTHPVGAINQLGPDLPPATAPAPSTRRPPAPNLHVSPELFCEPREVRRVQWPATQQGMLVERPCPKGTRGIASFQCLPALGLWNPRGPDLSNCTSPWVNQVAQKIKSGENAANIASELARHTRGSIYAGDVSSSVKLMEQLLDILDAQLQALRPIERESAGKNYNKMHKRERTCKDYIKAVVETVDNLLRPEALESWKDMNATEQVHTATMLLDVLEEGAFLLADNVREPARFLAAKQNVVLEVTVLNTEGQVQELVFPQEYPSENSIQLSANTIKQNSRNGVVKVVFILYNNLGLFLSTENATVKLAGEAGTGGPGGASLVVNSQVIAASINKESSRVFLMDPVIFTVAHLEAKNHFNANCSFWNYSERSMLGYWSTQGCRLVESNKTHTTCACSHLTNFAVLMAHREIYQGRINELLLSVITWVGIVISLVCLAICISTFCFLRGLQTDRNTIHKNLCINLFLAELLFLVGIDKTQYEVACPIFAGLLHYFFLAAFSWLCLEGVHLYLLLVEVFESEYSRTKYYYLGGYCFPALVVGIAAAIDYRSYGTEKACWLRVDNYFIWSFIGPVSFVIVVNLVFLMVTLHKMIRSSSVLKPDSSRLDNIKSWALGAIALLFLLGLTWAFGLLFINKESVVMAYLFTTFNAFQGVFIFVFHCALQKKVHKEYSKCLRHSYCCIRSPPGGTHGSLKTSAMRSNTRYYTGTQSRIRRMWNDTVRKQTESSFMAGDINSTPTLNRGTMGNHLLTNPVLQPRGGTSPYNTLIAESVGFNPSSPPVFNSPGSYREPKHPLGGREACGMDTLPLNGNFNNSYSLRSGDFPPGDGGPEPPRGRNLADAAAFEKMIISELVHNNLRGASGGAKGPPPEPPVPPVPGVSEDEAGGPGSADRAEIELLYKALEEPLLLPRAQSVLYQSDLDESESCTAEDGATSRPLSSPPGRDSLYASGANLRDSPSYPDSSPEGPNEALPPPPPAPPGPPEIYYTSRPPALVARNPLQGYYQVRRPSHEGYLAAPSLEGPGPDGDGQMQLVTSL
Protocol: as §1

mHypoE-38 neurons [2] = test: 3H-2-deoxyglucose uptake in mHypoE-38 hypothalamic neurons; format: cell-based, mouse
Protocol: The effect of TCAP-1 on glucose uptake in brain cells was examined in immortalized […] hypothalamic cells. Immortalized mHypoE-38 hypothalamic embryonic mouse neurons (gift from Dr. Denise Belsham, University of Toronto) were grown in Dulbecco's Modified Eagle Medium (DMEM) containing 4500 mg/L D-glucose, L-glutamine, and 25 mM HEPES buffer, without sodium pyruvate or phenol red (Gibco, Cat. No. 21063029), supplemented with 5% heat-inactivated fetal bovine serum (FBS), 100 U/ml penicillin and 100 μg/ml streptomycin. Cells were maintained at 60-70% confluency at 37° C. in a humidified CO2 incubator. To passage, cells were washed once in sterile PBS, trypsinized and seeded at a density of 100,000 cells per 3.5 cm plate and allowed to grow for 2-3 days. 24 hours prior to experimentation, medium was changed. mHypoE-38 hypothalamic cells were grown in 6-well tissue culture dishes (Corning Incorporated, Cat. No. 3516) at a seeding density of200 000 cells/9.5 cm^2 well in a 37° C. normoxic incubator. Cultures were grown for 36 hours to 85% confluence prior to experimentation. At day 3 post-plating, cells were washed twice with Locke's buffer (154 mM NaCl, 5.6 mM KCl, 2.3 mM CaCl2, 3.6 mM NaHCO3, 5 mM HEPES) without serum and glucose. The culture was incubated in the Locke's buffer for 1 hour at 37° C. followed by exposure to 100 nM insulin, 100 nM TCAP-1, 100 nM SC-TCAP-1, or saline. KCl (40 mM) and […] (0.5 μCi/ml) were added to culture 5 minutes before termination of treatment exposure. Uptake of ^3H-2-deoxyglucose was stopped immediately after 5 minutes with three washes of ice-cold 0.9% NaCl solution. Parallel experiments with 5 μM of cytochalasin B were performed to ensure that glucose uptake was of transporter-inhibitable transport. The cells were digested with 1 ml of 0.05 N NaOH at 0, 15, 30, 45, 60, 90 and 120 minutes after treatment. Cell lysates were used for determination of radioactivity by a beta liquid scintillation counter. Experiments were repeated three times with 3 wells pear condition per replication. […] hypothalamic cells were cultured as above and treated with 100 nM insulin, 100 nM TCAP-1 or saline, exposed to 5.6 mM or 40 mM KCl and 0.5 μCi/well 3H-2-deoxy glucose, and subsequently lysed with 50 mM NaOH. Radioactivity in cell lysates was counted using a liquid scintillation counter.

C2C12 myocytes = test: 3H-2-deoxyglucose uptake in C2C12 myocytes; format: cell-based, mouse; details: 100 nM
Protocol: The effect of TCAP-1 on glucose uptake in muscle cells was examined in a C2C12 mouse myocyte cell line. C2C12 myocytes were cultured in Dulbecco's Modified Eagle Medium (DMEM) containing 4500 mg/L D-glucose, L-glutamine, and 25 mM HEPES buffer, without sodium pyruvate or phenol red (Gibco, Cat. No. 21063029), supplemented with 20% heat-inactivated fetal bovine serum (FBS), 100 U/ml penicillin and 100 μg/ml streptomycin. Cells were maintained at 80% confluency at 37° C. in a humidified CO2 incubator. To initiate differentiation, myocytes were further cultured in DMEM supplemented with 10% heat-inactivated horse serum (HS), transferrin, 100 U/ml penicillin and 100 μg/ml streptomycin. Myocytes were allowed to differentiate into multi-nucleated myotubes for 5 days before experimentation. 24 hours prior to experimentation, medium was changed. At day 5 of differentiation, cells were deprived of serum and incubated in Minimal Essential Medium containing 1000 mg/L D-glucose, L-glutamine, without nucleosides (Gibco, Cat. No. 12561049) for 5 hours at 37° C. prior to incubation with insulin, TCAP-1, or saline. Cells were washed twice in glucose-free HEPES-buffered solution (HBS), containing 140 mM NaCl, 20 mM HEPES, 5 mM KCl, 2.5 mM MgSO4 and 1 mM CaCl2, followed by determinations of transport of 3H-2-deoxyglucose for 10 minutes at 0.5 μCi/ml at room temperature. Uptake of 3H-2-deoxyglucose was stopped immediately after 10 minutes with three washes of ice-cold 0.9% NaCl solution. Parallel experiments with 5 μM of cytochalasin B were done to ensure that glucose uptake was of transporter-inhibitable transport The cells were digested with 1 ml of 0.05 N NaOH. Cell lysates were used for determination of radioactivity by a beta liquid scintillation counter. Experiments were repeated three times with 3 wells per condition per replication. […] Cell lysates were used for determination of radioactivity by a beta liquid scintillation counter. […]

mHypoE-38 neurons [3] = test: 3H-2-deoxyglucose uptake in mHypoE-38 hypothalamic neurons; format: cell-based, mouse; details: Hypo-E38 cells, potassium-free media (FIG. 11F, G)

| co-localization with latrophilin-1 immunoreactivity (latrophilin-1) | Substance | binding to 5 μm sections of mouse gastrocnemius muscle [1] | 3H-2-deoxyglucose uptake (mHypoE-38 neurons [2]; 100 nM, 5.6 mM KCl (low KCl)) | 3H-2-deoxyglucose uptake (mHypoE-38 neurons [2]; 100 nM, 40 mM KCl exposure) | 3H-2-deoxyglucose uptake value relative to baseline (mHypoE-38 neurons [2]; 100 nM, 40 mM KCl, 45 minutes) | 3HDG uptake in whole cells over time (mHypoE-38 neurons [2]; Hypo-E38 cells (FIG. 11C-E)) | 3H-2-deoxyglucose uptake (mHypoE-38 neurons [2]; cells pretreated with MEK inhibitor (U0126) for 1 hour, 40 mM KCl) | 3H-2-deoxyglucose uptake (mHypoE-38 neurons [2]; non-MEK-inhibited cells, 40 mM KCl) | 3H-2-deoxyglucose uptake (C2C12 myocytes; 90 minutes) | 3H-2-deoxyglucose uptake (C2C12 myocytes; after 30 minutes) | 3HDG uptake in potassium-free media (mHypoE-38 neurons [3]) |
| --- | --- | --- | --- | --- | --- | --- | --- | --- | --- | --- | --- |
| strong co-localization | FITC-TCAP-1: [K8]-TCAP-1 peptide labeled with fluorescein isothiocyanate (FITC) (QQLLGTGKVQGYDGYFVLSVEQYLELSDSANNIHFMRQSEI; ends and bridges not checked; also: FITC label, attachment site not given here) | preferentially binds to the membranes of individual skeletal mouse muscle fibers | – | – | – | – | – | – | – | – | – |
| – | insulin | – | 91.423±5.226% | 288.572±24.527% | 253±21.38% | uptake in 3HDGlucose within 30 min and remained high until after 60 min | 108.069±13.671 | 162.846±1.813 | 332.321±87.296% | 284.520±47.129% | decreased insulin-dependent glucose uptake to baseline levels |
